# Experimental data taken from ChEMBL document CHEMBL4507283, “Data for DCP probe BI-1935” (2021).
# Experiments:
# [1] = target: Bone morphogenetic protein receptor type-1B (Homo sapiens) (UniProt O00238); conditions: Compound concentration 1000.0 nM
# [2] = target: Casein kinase II subunit alpha (Homo sapiens) (UniProt P68400); conditions: Compound concentration 1000.0 nM
# [3] = target: Dual specificity protein kinase TTK (Homo sapiens) (UniProt P33981); conditions: Compound concentration 1000.0 nM
# [4] = target: Dual specificity mitogen-activated protein kinase kinase 1 (Homo sapiens) (UniProt Q02750); conditions: Compound concentration 1000.0 nM
# [5] = target: Tyrosine-protein kinase Lck (Homo sapiens) (UniProt P06239); conditions: Compound concentration 1000.0 nM
# [6] = target: Casein kinase I isoform gamma-3 (Homo sapiens) (UniProt Q9Y6M4); conditions: Compound concentration 1000.0 nM
# [7] = target: T1, Thromboxane-A synthase (Homo sapiens) (UniProt P24557); test: THRO SYN(HU) Eurofins-Panlabs selectivity data (BI)
# T1 sequence (whole entry): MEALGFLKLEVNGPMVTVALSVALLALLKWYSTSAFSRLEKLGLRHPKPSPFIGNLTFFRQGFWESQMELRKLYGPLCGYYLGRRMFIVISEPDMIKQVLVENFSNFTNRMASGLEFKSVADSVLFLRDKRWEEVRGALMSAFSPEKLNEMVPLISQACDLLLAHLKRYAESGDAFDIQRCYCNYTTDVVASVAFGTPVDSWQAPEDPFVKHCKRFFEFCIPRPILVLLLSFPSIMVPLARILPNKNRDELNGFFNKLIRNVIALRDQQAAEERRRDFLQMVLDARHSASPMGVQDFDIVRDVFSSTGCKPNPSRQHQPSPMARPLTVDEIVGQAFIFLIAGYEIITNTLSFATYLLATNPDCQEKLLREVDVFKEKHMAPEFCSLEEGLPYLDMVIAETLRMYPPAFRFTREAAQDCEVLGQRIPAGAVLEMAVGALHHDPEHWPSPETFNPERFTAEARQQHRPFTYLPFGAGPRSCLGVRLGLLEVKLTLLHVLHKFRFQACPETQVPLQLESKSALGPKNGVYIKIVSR
# [8] = target: Protein kinase C delta type (Homo sapiens) (UniProt Q05655); conditions: Compound concentration 1000.0 nM
# Sequence of Protein kinase C delta type (Homo sapiens) (Q05655 whole entry, looked up): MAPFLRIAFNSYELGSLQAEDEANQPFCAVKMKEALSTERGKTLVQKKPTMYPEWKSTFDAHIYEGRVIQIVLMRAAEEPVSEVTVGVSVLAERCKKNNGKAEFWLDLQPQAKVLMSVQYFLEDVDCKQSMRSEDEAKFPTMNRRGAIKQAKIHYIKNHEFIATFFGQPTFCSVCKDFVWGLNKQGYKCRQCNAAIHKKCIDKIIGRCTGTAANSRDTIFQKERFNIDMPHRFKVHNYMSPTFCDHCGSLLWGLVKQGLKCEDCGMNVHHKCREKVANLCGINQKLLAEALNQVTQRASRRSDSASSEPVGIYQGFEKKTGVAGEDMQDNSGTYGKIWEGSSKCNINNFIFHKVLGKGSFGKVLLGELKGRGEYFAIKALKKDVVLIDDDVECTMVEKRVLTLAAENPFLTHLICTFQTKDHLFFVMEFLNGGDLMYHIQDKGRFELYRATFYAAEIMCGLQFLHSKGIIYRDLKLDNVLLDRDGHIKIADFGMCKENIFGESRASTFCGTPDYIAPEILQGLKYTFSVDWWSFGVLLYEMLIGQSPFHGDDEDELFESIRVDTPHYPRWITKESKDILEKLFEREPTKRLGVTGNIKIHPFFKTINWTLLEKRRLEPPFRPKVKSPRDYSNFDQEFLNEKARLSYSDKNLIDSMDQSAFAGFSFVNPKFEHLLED
# [9] = target: ALK tyrosine kinase receptor (Homo sapiens) (UniProt Q9UM73); conditions: Compound concentration 1000.0 nM
# Sequence of ALK tyrosine kinase receptor (Homo sapiens) (Q9UM73 19-1620 limits assumed): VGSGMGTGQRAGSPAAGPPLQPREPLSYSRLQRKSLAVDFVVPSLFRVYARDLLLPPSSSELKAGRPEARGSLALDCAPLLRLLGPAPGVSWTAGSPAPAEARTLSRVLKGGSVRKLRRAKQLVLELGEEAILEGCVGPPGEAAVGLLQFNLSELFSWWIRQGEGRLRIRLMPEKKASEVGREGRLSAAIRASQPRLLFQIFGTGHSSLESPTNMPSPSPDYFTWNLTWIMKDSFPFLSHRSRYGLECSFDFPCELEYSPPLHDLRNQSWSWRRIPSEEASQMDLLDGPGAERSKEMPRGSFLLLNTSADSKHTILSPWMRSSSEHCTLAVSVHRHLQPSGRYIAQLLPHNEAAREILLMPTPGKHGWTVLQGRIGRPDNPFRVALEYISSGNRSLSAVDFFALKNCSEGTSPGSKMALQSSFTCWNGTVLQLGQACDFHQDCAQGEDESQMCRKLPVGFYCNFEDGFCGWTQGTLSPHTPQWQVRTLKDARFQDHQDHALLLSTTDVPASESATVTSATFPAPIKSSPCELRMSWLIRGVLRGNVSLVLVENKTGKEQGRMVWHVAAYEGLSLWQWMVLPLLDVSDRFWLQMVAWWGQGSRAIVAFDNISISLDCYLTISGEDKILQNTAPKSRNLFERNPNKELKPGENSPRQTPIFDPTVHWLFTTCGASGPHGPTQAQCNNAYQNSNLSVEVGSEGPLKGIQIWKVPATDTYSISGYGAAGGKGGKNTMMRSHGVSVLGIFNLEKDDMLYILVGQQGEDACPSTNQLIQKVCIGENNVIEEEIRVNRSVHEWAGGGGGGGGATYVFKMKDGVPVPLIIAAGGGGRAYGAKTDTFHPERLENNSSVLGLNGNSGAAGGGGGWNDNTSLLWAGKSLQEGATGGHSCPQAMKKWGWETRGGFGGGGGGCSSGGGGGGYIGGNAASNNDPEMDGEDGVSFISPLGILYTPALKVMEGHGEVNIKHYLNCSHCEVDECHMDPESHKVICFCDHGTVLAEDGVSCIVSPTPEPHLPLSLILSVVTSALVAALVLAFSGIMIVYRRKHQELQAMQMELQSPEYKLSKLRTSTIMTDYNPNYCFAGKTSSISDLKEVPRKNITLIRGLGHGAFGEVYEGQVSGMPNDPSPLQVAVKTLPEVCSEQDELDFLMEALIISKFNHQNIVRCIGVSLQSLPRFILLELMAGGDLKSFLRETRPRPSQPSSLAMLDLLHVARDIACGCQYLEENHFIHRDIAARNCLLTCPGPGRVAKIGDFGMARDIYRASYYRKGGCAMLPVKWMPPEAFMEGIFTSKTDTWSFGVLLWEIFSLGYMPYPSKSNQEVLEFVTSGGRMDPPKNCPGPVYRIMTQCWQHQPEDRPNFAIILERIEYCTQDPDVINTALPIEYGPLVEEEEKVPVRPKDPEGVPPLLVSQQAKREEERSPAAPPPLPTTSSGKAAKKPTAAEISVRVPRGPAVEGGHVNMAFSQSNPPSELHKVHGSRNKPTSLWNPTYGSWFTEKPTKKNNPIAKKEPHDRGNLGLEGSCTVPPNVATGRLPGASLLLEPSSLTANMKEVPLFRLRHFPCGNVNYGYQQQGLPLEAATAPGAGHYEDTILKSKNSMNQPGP
# [10] = target: AP2-associated protein kinase 1 (Homo sapiens) (UniProt Q2M2I8); conditions: Compound concentration 1000.0 nM
# [11] = test system: Receptor-type tyrosine-protein kinase FLT3 (Homo sapiens), P36888 [D835Y]; conditions: Compound concentration 1000.0 nM
# [12] = target: Serine/threonine-protein kinase MARK1 (Homo sapiens) (UniProt Q9P0L2); conditions: Compound concentration 1000.0 nM
# [13] = target: T2, 5-hydroxytryptamine receptor 3A (Homo sapiens) (UniProt P46098); test: 5HT3/HU Eurofins-Panlabs selectivity data (BI); conditions: Compound concentration 10.0 uM
# T2 sequence (whole entry): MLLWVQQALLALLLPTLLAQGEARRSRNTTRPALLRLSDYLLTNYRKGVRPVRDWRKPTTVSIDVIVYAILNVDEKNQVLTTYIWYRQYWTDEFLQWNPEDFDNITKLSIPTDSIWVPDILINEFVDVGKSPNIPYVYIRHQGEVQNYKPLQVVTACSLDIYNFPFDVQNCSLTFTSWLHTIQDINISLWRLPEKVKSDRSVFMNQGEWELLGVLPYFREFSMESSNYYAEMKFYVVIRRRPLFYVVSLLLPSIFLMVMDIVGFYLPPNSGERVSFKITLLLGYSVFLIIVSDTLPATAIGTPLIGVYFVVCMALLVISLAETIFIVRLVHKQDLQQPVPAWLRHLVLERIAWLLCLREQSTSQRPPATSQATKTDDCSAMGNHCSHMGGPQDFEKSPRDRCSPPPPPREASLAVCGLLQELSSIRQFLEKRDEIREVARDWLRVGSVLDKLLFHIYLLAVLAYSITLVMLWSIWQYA
# [14] = target: Non-receptor tyrosine-protein kinase TNK1 (Homo sapiens) (UniProt Q13470); conditions: Compound concentration 1000.0 nM
# [15] = target: Serine/threonine-protein kinase Sgk2 (Homo sapiens) (UniProt Q9HBY8); conditions: Compound concentration 1000.0 nM
# [16] = target: Calcium/calmodulin-dependent protein kinase type 1G (Homo sapiens) (UniProt Q96NX5); conditions: Compound concentration 1000.0 nM
# [17] = target: Opioid receptor (Rattus norvegicus) (UniProt P33533+P34975+P33535); test: OPIAT/NS Eurofins-Panlabs selectivity data (BI); format: protein assay; conditions: Compound concentration 10.0 uM
# Sequence of Opioid receptor (Rattus norvegicus) (P33533 whole entry, looked up): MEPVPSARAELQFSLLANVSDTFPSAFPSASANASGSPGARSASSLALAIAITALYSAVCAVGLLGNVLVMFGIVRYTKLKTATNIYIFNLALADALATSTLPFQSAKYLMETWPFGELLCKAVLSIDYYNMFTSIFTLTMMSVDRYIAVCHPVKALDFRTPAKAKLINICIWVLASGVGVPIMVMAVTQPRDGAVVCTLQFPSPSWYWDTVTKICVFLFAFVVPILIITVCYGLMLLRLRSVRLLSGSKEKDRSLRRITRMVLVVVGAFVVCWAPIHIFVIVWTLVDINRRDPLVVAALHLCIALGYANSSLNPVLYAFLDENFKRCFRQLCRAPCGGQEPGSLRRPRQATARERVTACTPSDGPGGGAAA
# Sequence of Opioid receptor (Rattus norvegicus) (P33535 whole entry, looked up): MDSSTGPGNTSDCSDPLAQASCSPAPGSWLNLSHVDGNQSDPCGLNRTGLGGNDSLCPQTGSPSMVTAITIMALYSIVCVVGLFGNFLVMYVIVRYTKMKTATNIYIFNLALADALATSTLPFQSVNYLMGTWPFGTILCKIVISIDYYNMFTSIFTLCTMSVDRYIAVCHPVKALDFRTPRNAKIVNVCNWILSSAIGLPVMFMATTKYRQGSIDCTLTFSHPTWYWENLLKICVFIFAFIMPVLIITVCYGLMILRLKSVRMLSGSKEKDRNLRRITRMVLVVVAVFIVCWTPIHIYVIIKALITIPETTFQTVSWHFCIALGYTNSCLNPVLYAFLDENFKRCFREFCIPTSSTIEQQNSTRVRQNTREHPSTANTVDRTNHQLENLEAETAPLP
# Sequence of Opioid receptor (Rattus norvegicus) (P34975 whole entry, looked up): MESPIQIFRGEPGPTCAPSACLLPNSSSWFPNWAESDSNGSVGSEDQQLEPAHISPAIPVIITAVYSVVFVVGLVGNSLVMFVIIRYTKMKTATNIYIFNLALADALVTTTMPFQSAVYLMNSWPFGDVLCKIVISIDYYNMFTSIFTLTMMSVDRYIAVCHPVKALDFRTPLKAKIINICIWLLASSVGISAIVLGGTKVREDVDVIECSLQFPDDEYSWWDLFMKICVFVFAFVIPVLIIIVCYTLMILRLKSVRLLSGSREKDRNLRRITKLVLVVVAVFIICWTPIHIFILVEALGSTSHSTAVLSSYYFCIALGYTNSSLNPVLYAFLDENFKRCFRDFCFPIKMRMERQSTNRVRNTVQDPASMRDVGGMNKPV
# [18] = test system: Hepatocyte growth factor receptor (Homo sapiens), P08581 [Y1235D]; conditions: Compound concentration 1000.0 nM
# [19] = target: Phosphatidylinositol 5-phosphate 4-kinase type-2 beta (Homo sapiens) (UniProt P78356); conditions: Compound concentration 1000.0 nM
# [20] = target: Calcium/calmodulin-dependent protein kinase type II subunit alpha (Homo sapiens) (UniProt Q9UQM7); conditions: Compound concentration 1000.0 nM
# [21] = target: Calcium/calmodulin-dependent protein kinase type IV (Homo sapiens) (UniProt Q16566); conditions: Compound concentration 1000.0 nM
# [22] = target: Cathepsin G (Homo sapiens) (UniProt P08311); test: PEPCATHEPSG Eurofins-Panlabs selectivity data (BI); conditions: Compound concentration 10.0 uM
# [23] = target: Serine/threonine-protein kinase SIK1 (Homo sapiens) (UniProt P57059); conditions: Compound concentration 1000.0 nM
# Sequence of Serine/threonine-protein kinase SIK1 (Homo sapiens) (P57059 whole entry): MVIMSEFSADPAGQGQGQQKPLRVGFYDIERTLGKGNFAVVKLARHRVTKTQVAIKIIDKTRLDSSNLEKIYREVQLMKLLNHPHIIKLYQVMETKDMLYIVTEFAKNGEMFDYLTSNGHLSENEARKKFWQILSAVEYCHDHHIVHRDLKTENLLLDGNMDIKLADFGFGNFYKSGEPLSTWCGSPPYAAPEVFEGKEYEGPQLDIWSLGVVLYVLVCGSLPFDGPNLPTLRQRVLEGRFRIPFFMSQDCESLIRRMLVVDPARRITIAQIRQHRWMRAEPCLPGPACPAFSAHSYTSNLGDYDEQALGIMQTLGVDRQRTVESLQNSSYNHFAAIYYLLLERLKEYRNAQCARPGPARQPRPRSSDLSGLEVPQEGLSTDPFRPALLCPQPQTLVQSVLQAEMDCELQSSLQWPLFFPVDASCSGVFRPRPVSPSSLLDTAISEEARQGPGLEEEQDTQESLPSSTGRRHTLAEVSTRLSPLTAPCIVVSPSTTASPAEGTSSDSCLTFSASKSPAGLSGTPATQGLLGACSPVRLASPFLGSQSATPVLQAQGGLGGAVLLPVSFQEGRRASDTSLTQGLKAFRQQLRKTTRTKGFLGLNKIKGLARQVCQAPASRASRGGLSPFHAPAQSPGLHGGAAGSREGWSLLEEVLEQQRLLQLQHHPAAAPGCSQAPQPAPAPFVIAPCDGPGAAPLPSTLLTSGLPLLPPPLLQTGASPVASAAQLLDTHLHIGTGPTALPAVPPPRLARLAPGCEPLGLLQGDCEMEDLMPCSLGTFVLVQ
# [24] = target: Serine/threonine-protein kinase MRCK beta (Homo sapiens) (UniProt Q9Y5S2); conditions: Compound concentration 1000.0 nM
# [25] = target: Serine/threonine-protein kinase OSR1 (Homo sapiens) (UniProt O95747); conditions: Compound concentration 1000.0 nM
# [26] = target: Serine/threonine-protein kinase TNNI3K (Homo sapiens) (UniProt Q59H18); conditions: Compound concentration 1000.0 nM
# Sequence of Serine/threonine-protein kinase TNNI3K (Homo sapiens) (Q59H18 whole entry): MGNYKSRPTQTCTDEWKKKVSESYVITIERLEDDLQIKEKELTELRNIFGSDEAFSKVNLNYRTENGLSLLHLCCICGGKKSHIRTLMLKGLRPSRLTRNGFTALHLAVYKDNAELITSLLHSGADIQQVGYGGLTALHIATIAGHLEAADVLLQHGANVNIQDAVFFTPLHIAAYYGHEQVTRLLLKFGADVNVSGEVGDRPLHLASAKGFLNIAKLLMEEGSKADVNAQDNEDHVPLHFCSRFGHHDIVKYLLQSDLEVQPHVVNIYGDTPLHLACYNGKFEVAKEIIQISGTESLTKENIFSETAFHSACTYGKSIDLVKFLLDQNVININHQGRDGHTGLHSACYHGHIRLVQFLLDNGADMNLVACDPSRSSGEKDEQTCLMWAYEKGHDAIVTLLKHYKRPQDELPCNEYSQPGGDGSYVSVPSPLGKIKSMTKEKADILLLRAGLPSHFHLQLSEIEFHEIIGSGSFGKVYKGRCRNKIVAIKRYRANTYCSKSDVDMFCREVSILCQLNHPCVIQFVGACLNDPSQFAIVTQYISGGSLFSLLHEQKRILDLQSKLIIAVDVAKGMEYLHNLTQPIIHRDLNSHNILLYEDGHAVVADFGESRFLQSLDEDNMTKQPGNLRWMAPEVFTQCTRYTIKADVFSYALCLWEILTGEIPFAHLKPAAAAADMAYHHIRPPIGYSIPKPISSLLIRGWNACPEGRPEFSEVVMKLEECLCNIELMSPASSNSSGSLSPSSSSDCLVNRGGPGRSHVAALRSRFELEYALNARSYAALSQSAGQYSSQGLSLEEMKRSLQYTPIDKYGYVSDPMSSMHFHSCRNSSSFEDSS
# [27] = test system: ALK tyrosine kinase receptor (Homo sapiens), Q9UM73 [C1156Y]; conditions: Compound concentration 1000.0 nM
# [28] = target: Serine/threonine-protein kinase RIO2 (Homo sapiens) (UniProt Q9BVS4); conditions: Compound concentration 1000.0 nM
# [29] = target: Casein kinase I isoform gamma-2 (Homo sapiens) (UniProt P78368); conditions: Compound concentration 1000.0 nM
# [30] = target: Receptor-type tyrosine-protein kinase FLT3 (Homo sapiens) (UniProt P36888); conditions: Compound concentration 1000.0 nM
compound,measurement,setting,value
CCOCCn1cc(C(=O)Nc2ccc(-n3nc(-c4cccnc4)cc3C(F)(F)F)cn2)ccc1=O [BI 1935],residual activity,[1],71%
same,residual activity,[2],70%
same,residual activity,[3],100%
same,residual activity,[4],86%
same,residual activity,[5],100%
same,residual activity,[6],100%
same,residual activity,[7]; Compound concentration 0.03 uM,86%
same,residual activity,[7]; Compound concentration 0.1 uM,57%
same,residual activity,[7]; Compound concentration 0.3 uM,27%
same,residual activity,[7]; Compound concentration 1.0 uM,13%
same,residual activity,[7]; Compound concentration 3.0 uM,2%
same,residual activity,[7]; Compound concentration 10.0 uM,4%
same,residual activity,[8],100%
same,residual activity,[9],79%
same,residual activity,[10],100%
same,residual activity,[11],98%
same,residual activity,[12],100%
same,residual activity,[13],117%
same,residual activity,[14],83%
same,residual activity,[15],100%
same,residual activity,[16],100%
same,residual activity,[17],99%
same,residual activity,[18],100%
same,residual activity,[19],68%
same,residual activity,[20],93%
same,residual activity,[21],100%
same,residual activity,[22],117%
same,residual activity,[23],100%
same,residual activity,[24],89%
same,residual activity,[25],92%
same,residual activity,[26],100%
same,residual activity,[27],100%
same,residual activity,[28],60%
same,residual activity,[29],100%
same,residual activity,[30],63%
